Assay results: patent US6951882B2, “Substituted 4-phenyl-[1,3]-dioxanes” (Janssen Pharmaceutica N.V., priority 2002, dated 2005)

Key:
[1] = target: T1, orexin receptors in PFSK-1 cells (Homo sapiens, UniProt O43614); experiment: Intracellular calcium ion measurement (FLIPR, Fluo-3 AM) in PFSK-1 cells, antagonism of orexin agonist; format: cell-based
T1 construct: host or cells: PFSK-1
T1 sequence (O43614 1-444): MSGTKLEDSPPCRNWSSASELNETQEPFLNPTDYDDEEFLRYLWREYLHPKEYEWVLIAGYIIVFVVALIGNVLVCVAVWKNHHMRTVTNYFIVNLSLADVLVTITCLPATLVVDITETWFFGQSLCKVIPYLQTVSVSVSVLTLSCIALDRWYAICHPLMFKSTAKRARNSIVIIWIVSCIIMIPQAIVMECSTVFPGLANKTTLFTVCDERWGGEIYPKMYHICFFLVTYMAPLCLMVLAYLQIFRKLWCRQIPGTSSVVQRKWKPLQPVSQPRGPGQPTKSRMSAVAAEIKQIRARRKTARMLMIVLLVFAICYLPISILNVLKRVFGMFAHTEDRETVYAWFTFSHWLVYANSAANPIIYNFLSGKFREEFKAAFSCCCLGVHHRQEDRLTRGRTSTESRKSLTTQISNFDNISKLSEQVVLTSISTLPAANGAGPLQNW
Protocol: PFSK-1 cells were obtained from the American Type Culture Collection (CRL-2060; Manassas, Va.) and cultured as described by Fults et al. (J. Neuropathology Exp. Neurology, 1992, 51 (3):272-280). Cells were grown on 10 or 15 cm tissue culture dishes (Corning Inc., Corning, N.Y.) in RPMI medium 1640 containing 25 mM Hepes and L-glutamine (Gibco/InVitrogen, Carlsbad, Calif.) supplemented with 10% fetal bovine serum (HyClone, Logan, Utah), 50 u/mL penicillin G, and 50 u/mL streptomycin sulphate. Cells grown on 10 dishes were grown in 10 mL complete medium, and cells grown on 15 cm dishes were grown in 30 mL complete medium. Cells were passed every 3 to 5 days at a 1:5 dilution by aspirating away the medium, adding 2 mL/dish Gibco/Invitrogen Trypsin-EDTA solution, aspirating away the solution, incubating at room temperature 5 min, and dispersing the cells into fresh plates using fresh complete medium. Cells were then maintained in incubators set to maintain 37° C. and 5% CO2.
Agonist binding of orexin receptors elevates the intracellular free calcium ion concentration through the activation of a Gq protein and the opening of voltage-activated plasmalemmal calcium channels (see: A. N. Van Den Pol et al. J. Neurosci., 1998, 18(19):7962-7971). This effect was monitored using the fluorescent Ca^++ indicator Fluo-3 AM (TefLabs, Austin, Tex.) and the Molecular Devices (Sunnyvale, Calif.) FLIPR instrument.
PFSK-1 cells were removed from confluent tissue culture dishes with trypsin-EDTA as described above and plated in 96-well Packard Viewplates (Meriden, Conn.) at 50,000 cells/well in 100 μL/well complete medium. The next day the cells, which adhered to the Viewplates and grew to confluency, were loaded with the fluorescent dye. […] Test compounds were added to the wells in an isotonic, pH-neutral vehicle, such as Dulbecco's phosphate-buffered saline, and changes in intracellular calcium concentrations were measured using the FLIPR instrument.
The compounds were delivered to the test wells, and the compounds and the cells were incubated to allow binding. […] The control column for the antagonist screen included positive and negative controls to indicate the fluorescence of a full agonist response and the baseline.
Antagonism was analyzed by calculating KB and pKB values for compounds found to inhibit increases in intracellular Ca^++ concentrations of PFSK-1 cells. This was accomplished by determining the EC50 of orexin B and comparing the IC50 values determined from dilutions of antagonist compound(s), all on a single 96-well Viewplate of PFSK-1 cells loaded with Fluo-3 AM. […] The KB is then determined after Y.-C. […]

orexin-2 receptor = target: T2, orexin-2 receptor (Homo sapiens, UniProt O43614); experiment: Orexin radioligand binding assay (125I-orexin A, adherent recombinant cells); details: 125I-orexin A displacement, recombinant CHO-K1 or HEK-293 cells expressing the orexin receptor
T2 construct: expressed in transfected cells; host or cells: CHO-K1 (preferred) or HEK-293 recombinant clones
T2 sequence (O43614 1-444): T1 sequence (O43614 1-444)
Protocol: The reaction was quenched with 100 μL of 10% w/v bovine serum albumin, then the products were pre-purified using Waters Maxi-Clean C18 cartridges (Alltech, San Jose, Calif.). The mobile phase for the reverse phase separations (pre-purification and gradient HPLC) was 0.1% TFA, and the eluent was 0.1% TFA in acetonitrile. After removing the acetonitrile from the Maxi-Clean cartridge eluent by lyophilization, the labeled compound was further purified by gradient HPLC using a Vydac (Hesperia, Calif.) analytical C18 HPLC column. A gradient of 2% acetonitrile/min was used and fractions were collected every 0.75 min at a flow rate of 1.5 mL/min.
Radioligand binding assays were performed in opaque, white 96-well tissue culture plates pretreated with poly-D-lysine (Bio-Coat plates, Becton Dickinson, Franklin Lakes, N.J.). Cells expressing the orexin receptor were seeded at 30,000 cells/well in 100 μL/well Ham's F12 with 10% heat inactivated fetal bovine serum, penicillin/streptomycin and 800 mg/L G418. […] In preparation for the binding assay, the cell culture medium was aspirated away, and the cells were gently washed with 100 μL-well binding buffer (Dulbecco's phosphate buffered saline containing 0.1% w/v bovine serum albumin). […] The assay was terminated by aspirating the liquid from the wells, washing the wells with iced binding buffer, aspirating the wells dry, adding 50 μL/well scintillation cocktail (MicroScint 40, Packard Biosciences, Meriden Conn.), and counting the plate(s) in a Packard TopCount scintillation counter. […] Data were analyzed using GraphPad Prizm software to calculate Ki values.

SMILES	Kb [1]	Ki (orexin-2 receptor)
CC1(C)OC[C@H](NC(=O)Nc2ccc(Br)cc2Cl)[C@H](c2ccccc2)O1 [Example 1, 1-(4-Bromo-2-chloro-phenyl)-3-((4S,5S)-2,2-dimethyl-4-phenyl-[1,3]dioxan-5-yl)-urea]	25.1 nM	9 nM
CC1(C)OC[C@H](NC(=O)Nc2ccc(Br)cc2Br)[C@H](c2ccccc2)O1 [Example 4, 1-(2,4-Dibromo-phenyl)-3-((4S,5S)-2,2-dimethyl-4-phenyl-[1,3]dioxan-5-yl)-urea]	5.01 nM	10 nM
CC1(C)OC[C@H](NC(=O)Nc2ccc(Cl)cc2Cl)[C@H](c2ccccc2)O1 [Example 5, 1-(2,4-Dichloro-phenyl)-3-((4S,5S)-2,2-dimethyl-4-phenyl-[1,3]dioxan-5-yl)-urea]	25.1 nM	15 nM
Cc1ccc(NC(=O)N[C@H]2COC(C)(C)O[C@H]2c2ccccc2)c(Br)c1 [Example 12, 1-(2-Bromo-4-methyl-phenyl)-3-((4S,5S)-2,2-dimethyl-4-phenyl-[1,3]dioxan-5-yl)-urea]	6.31 nM	5 nM
CC(C)c1ccccc1NC(=O)N[C@H]1COC(C)(C)O[C@H]1c1ccccc1 [Example 42, 1-((4S,5S)-2,2-Dimethyl-4-phenyl-[1,3]dioxan-5-yl)-3-(2-isopropyl-phenyl)-urea]	–	2900 nM
CC1(C)OC[C@H](NC(=O)Nc2c(Cl)cccc2Cl)[C@H](c2ccccc2)O1 [Example 43, 1-(2,6-Dichloro-phenyl)-3-((4S,5S)-2,2-dimethyl-4-phenyl-[1,3]dioxan-5-yl)-urea]	–	5000 nM
CC1(C)OC[C@H](NC(=O)Nc2cccc(Br)c2)[C@H](c2ccccc2)O1 [Example 44, 1-(3-Bromo-phenyl)-3-((4S,5S)-2,2-dimethyl-4-phenyl-[1,3]dioxan-5-yl)-urea]	–	3800 nM
CC1(C)OC[C@H](NC(=O)Nc2ccc(F)cc2F)[C@H](c2ccccc2)O1 [Example 45, 1-(2,4-Difluoro-phenyl)-3-((4S,5S)-2,2-dimethyl-4-phenyl-[1,3]dioxan-5-yl)-urea]	–	6000 nM
CC1(C)OC[C@H](NC(=O)Nc2cccc(Cl)c2)[C@H](c2ccccc2)O1 [Example 46, 1-(3-Chloro-phenyl)-3-((4S,5S)-2,2-dimethyl-4-phenyl-[1,3]dioxan-5-yl)-urea]	–	2000 nM
